Test results published in patent publication US20240083949A1, “CELL PENETRATING PEPTIDE COMPOSITIONS AND METHODS THEREOF” (The Regents of the University of California, priority 2022, published 2024).
Entries after “also recorded” stand apart in the source; their conditions may differ. Positions of bridges follow the written chain, without caps; N, C: chain ends. Non-standard residues stand in square brackets, D forms with d. Lys(N3) = [N-]=[N+]=NCCCC[C@H](N)C(=O)O; Pra = C#CC[C@H](N)C(=O)O

Columns and labels:
U87 cells [1] = test: Endocytosis inhibitors treatment, RB-EPP6 uptake by flow cytometry; assay type: cell-based, human; details: 500 nM RB-EPP6, flow cytometry
Procedure: (§1) Flow cytometry experiments. To measure the RB signal intensity, a NovoCyte flow cytometer (NovoExpress) was used. Quantification of fluorescence intensity in each condition was performed using Novoxpress software. Fifty thousand cells were analyzed for each condition. A green, fluorescent dye used in DNA staining, YOYO was included in all the flow cytometry experiments, serving as a cell live/dead indicator. For the YOYO only group, the cells were treated with trypsin for 5-10 min. After that, cells were fixed in a 1.5 ml centrifuge tube using 4% paraformaldehyde at room temperature for 15 min. Subsequently, fixed cells were washed with PBS once and was permeabilized using 90% cold MeOH on ice for 15 min. Then, cells were incubated with YOYO in phenol-free medium. After half an hour, cells were centrifuged to get rid of YOYO solution and resuspended in fresh phenol-free medium before doing flow cytometry.
Endocytosis inhibitors treatment. U87 Cells were incubated with different endocytosis inhibitors for 1 h respectively. Afterwards, old medium was replaced with medium containing 500 nM RB-EPP 6. After 1 h, a trypsin-EDTA solution (0.05%, Sigma) was added to detach the cells. The cells were collected by centrifugation. Fresh phenol-free medium was added to each condition. Once resuspended, cells were filtered into glass tubes before flow cytometry.

FIBCD1 = molecular target: T1, FIBCD1 (Homo sapiens, UniProt Q8N539); test: FIBCD1 competition assay; assay type: cell-based; details: U87 cells, 500 nM RB-EPP6, flow cytometry
T1 construct: endogenous in cells; host or cells: U87 human glioblastoma cells
T1 sequence (Q8N539 1-461): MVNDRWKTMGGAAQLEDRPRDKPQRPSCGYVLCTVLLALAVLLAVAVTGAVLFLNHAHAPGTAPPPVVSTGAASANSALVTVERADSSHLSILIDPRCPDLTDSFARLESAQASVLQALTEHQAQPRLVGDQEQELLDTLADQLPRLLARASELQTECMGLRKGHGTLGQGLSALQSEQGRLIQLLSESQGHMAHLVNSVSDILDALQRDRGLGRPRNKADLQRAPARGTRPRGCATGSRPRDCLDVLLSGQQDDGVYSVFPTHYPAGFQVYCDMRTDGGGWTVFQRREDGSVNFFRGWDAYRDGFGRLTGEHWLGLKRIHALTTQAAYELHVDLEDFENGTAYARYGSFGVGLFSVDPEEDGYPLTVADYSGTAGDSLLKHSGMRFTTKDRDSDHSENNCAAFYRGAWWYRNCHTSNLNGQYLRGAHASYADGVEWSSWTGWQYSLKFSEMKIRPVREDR
Procedure: as §1
FIBCD1 competition assay. U87 cells were incubated with 500 nM RB-EPP 6 and YOYO, together with FIBCD1 ligands, sodium acetate (SA) at 3.1 mM (1×) and acetylmannosamine (AMA) at 1.6 mM (1×) respectively. After 1 h, trypsin was added to detach the cells. Cell pallets were collected by centrifugation. Fresh phenol-free medium was added to each condition. Once resuspended, cells were filtered into glass tubes before flow cytometry.

U87 cells [2] = test: Confocal imaging of Dye-EPP uptake in U87 cells; assay type: cell-based, human; details: for ability to enter the cells (intracellular fluorescence): RB-tagged EPPs, ranking among EPP1-7
Procedure: Confocal Imaging experiments. To image the cells, a Zeiss 880 inverted confocal laser scanning microscope (Carl Zeiss, Germany) was used. Image acquisition and analyses were carried out using the manufacturer's software (ZEN, Carl Zeiss). Quantification of fluorescence intensity in single cells was performed using Fiji software.
Dye-EPP incubation. For general incubation, 300 k U87 cells were seeded in full medium containing 10% FBS and 1% PS in a 35×10 mm petri dish. The cells were incubated overnight in full medium. Stock solution of Dye-EPPs were made in DMSO to reach a concentration of 500 μM. Fresh cell culture medium was used to dilute the stock solution to 500 nM and replace the old medium on day 2. Cells were incubated with RB-EPPs for different time periods, followed by a one-time wash with phenol-free fresh culture medium before measurements.
Concentration gradient experiment. U87 Cells were incubated with RB-EPP 6 at different concentrations (20 nM, 200 nM, 2 μM, 20 μM, 50 μM and 100 μM). After wash with fresh medium once cells were examined by confocal imaging.

[3] = Octanol-water partition assay; assay type: physicochemical
Procedure: Octanol-water partition assay. For each RB-EPP, pre-mix 250 μl of octanol with 250 μl of water in a 1.5 ml centrifuge tube. 2 μl of RB-EPP was added to the solution at the concentration of 500 μM. After vortex the mixture, centrifuge at the highest speed for 10 min to separate the octanol and water phases. Samples were collected from both phases and quantified by the Analytical HPLC separately.

a = test: a
From the text: Table printed on a drawing sheet, FIGURES 7A-7B
The patent's description of the figure: FIGS. 7A-7B. (FIG. 7a) PAMPA assay results of EPPs.
First reader's note: Panel a of the sheet; per the description these are PAMPA permeability results, and panel b is a bar graph of the same values.

different cell lines = test: RB-EPP6 uptake in different cell lines (confocal imaging); assay type: cell-based
From the text: Cell lines and cell culture. The human glioblastoma cell line (U87) was gifted from Prof. Wei Wei (Institute For Systems Biology, Seattle). The human monocytic leukemia cell line (THP-1) and the human T-cell leukemia cell line (Jurkat) were purchased from ATCC. The human embryonic kidney cell line (HEK-293T), the human osteosarcoma cell line (U2OS), the human breast cancer cell line (MCF-7), the human metastatic melanoma cell lines (IGR-37, IGR-39, WM266-4 and WM115), the human cervical carcinoma cell line (HeLa), and the human myelogenous leukemia cell line (K562) were gifted from Prof. Yinsheng Wang (UC Riverside). The non-tumorigenic epithelial cell line (MCF 10A) and the human breast adenocarcinoma cell line (MDA-MB-231) were gifted from Prof. Wenwan Zhong (UC Riverside). The canine epithelial kidney cell line (MDCK) and the African green monkey kidney cell line (Vero) were gifted from Prof. Hai Rong (UC Riverside). The human colon carcinoma cell line (HCT116) was gifted from Prof. Xuan Liu (UC Riverside). The human liver carcinoma cell line (HEPG2), the rat liver cell line (MCA7777) and the mouse sarcoma cell line (J774A.1) were gifted from Prof. Joseph Genereux (UC Riverside).
Confocal Imaging experiments. […] Quantification of fluorescence intensity in single cells was performed using Fiji software. […]

U87 cells [4] = test: Heparin binding assay, RB-EPP6 uptake by flow cytometry; assay type: cell-based, human; details: heparin 10-200 μg/ml
Procedure: as §1, with “cytometry. Heparin binding assay. […] A trypsin-EDTA solution (0.05%, Sigma) was added to detach the cells. The cells were collected by centrifugation. Fresh phenol-free medium was added to each condition. Once resuspended, cells were filtered into glass tubes before flow cytometry.” for “cytometry.”

| Compound | effect of inhibitor on RB-EPP6 uptake (U87 cells [1]) | Pe (a) | other results |
| --- | --- | --- | --- |
| O=C(N/N=C/c1ccc(O)c(O)c1)c1cc2ccccc2cc1O [Dynasore] | almost completely suppressed | – | – |
| O=C1NC(=NS(=O)(=O)c2cccc3ccccc23)S/C1=C\c1ccc(Br)cc1 [Pitstop 2] | did not affect the uptake | – | – |
| CC(=O)NC1C(O)OC(CO)C(O)C1O (stereo not drawn) [acetylmannosamine] | – | – | effect of FIBCD1 ligand on RB-EPP6 uptake (FIBCD1): inhibit RB-EPP6 uptake in a concentration-dependent manner |
| C=C1[C@@H](C)[C@H]2[C@H](Cc3ccccc3)NC(=O)[C@]23[C@H](OC(C)=O)/C=C/[C@@](C)(O)C(=O)[C@@H](C)C/C=C/[C@H]3[C@@H]1O [cytochalasin D] | significantly decreased | – | – |
| CCCCC[C@@H](O)[C@H]1C(=O)O[C@H](C)[C@@H](O)/C=C/C=C/C=C/C=C/C=C(\C)[C@@H](O)C[C@H](O)C[C@H](O)C[C@H](O)C[C@H](O)C[C@H](O)C[C@@H]1O [filipin] | did not inhibit | – | – |
| c1ccc2c(c1)Nc1ccccc1S2 [phenothazine] | did not affect the uptake | – | – |
| RB-cy(YTYYT) [RB-EPP3] | – | – | ability to enter the cells (intracellular fluorescence) (U87 cells [2]; U87 cells, confocal imaging): worst; hydrophobicity (octanol partitioning) [3]: most hydrophobic |
| c[Pra-Ser-Tyr-Tyr-Ser-Tyr-Az4] ([Pra]SYYSY[Lys(N3)]; triazole N-C) [EPP7] | – | 0.63243 ×10⁻⁶ cm/s | – |
| c[Pra-Thr-Tyr-Tyr-Thr-Tyr-Az4] ([Pra]TYYTY[Lys(N3)]; triazole N-C) [EPP2] | – | 0.46872 ×10⁻⁶ cm/s | – |
| c[Pra-Tyr-Ser-Tyr-Tyr-Ser-Az4] ([Pra]YSYYS[Lys(N3)]; triazole N-C) [EPP6] [listing 1 of 2 here] | – | 0.234 ×10⁻⁶ cm/s | – |
| c[Pra-Tyr-Ser-Tyr-Tyr-Ser-Az4] ([Pra]YSYYS[Lys(N3)]; triazole N-C) [EPP6] [listing 2 of 2 here] | – | – | delivery of different fluorescent dye cargo molecules (U87 cells [2]; EPP6 conjugated to different dyes incl. AF555 and AF647, U87 cells): could bring all these cargo molecules into U87 cells; fluorescence intensity in the cells compared with TAT peptide (U87 cells [2]; RB tag, U87 cells, confocal imaging): ~2 ×; ability to enter the cells (intracellular fluorescence) (U87 cells [2]; U87 cells, confocal imaging): highest efficiency; concentration-dependent uptake (fluorescence signal) (U87 cells [2]; U87 cells, 20 nM to 100 μM): higher fluorescence signals across a wide range; uptake in different cell lines (different cell lines): able to enter a wide array of human cancer and noncancer cells, as well as non-human cells |
| c[Pra-Tyr-Thr-Tyr-Tyr-Thr-Az4] ([Pra]YTYYT[Lys(N3)]; triazole N-C) [EPP3] | – | 0.11206 ×10⁻⁶ cm/s | – |
| cy(TTTTT) [EPP5] | – | 1.8954 ×10⁻⁶ cm/s | – |
| cy(YYTYT) [EPP1] | – | 0.16201 ×10⁻⁶ cm/s | – |
| heparin | – | – | effect of heparin on RB-EPP6 uptake (U87 cells [4]): did not affect; also recorded: no inhibitory effect |
| methyl-β-cyclodextrin | did not inhibit | – | – |
